# From the METLIN SMRT retention time set (Domingo-Almenara et al. 2019)
# Test: gradient 5% acetonitrile 3 min, to 50% in 2 min, to 85% in 15 min, held 3 min, 100 µL/min
# Conditions: column: Zorbax Extend-C18 2.1 x 50 mm; eluents: water / acetonitrile, 0.1% formic acid
# Method in brief: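 Over 3 months, pure standards in mixtures of ~100 molecules were run by HPLC coupled to a quadrupole time-of-flight mass spectrometer in positive and negative ionization mode. The column was a Zorbax Extend-C18 (2.1 × 50 mm, 1.8 μm) at 100 μL/min, eluted with water and acetonitrile each holding 0.1% formic acid, with 40 μL dead and 900 μL dwell volumes. Retention time was determined from adduct peaks chosen by software and checked manually.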
row,SMILES,RP-LC retention time
1,CCOc1ccccc1NC(=O)C1CCN(c2cnc(N3CCCCC3)nc2)CC1,928 s
2,CCOC(=O)c1ccc(NS(=O)(=O)c2c[nH]c3ncccc23)cc1,734 s
3,Cc1nnc2ccc(-c3noc(-c4ccc5c(c4)OCO5)n3)cn12,871 s
4,O=C1COc2cc(S(=O)(=O)N3CCC(C(=O)N4CCc5ccccc5C4)CC3)c(Cl)cc2N1,838 s
5,Cc1cc(NC(=O)CSc2cc(N3CCCC3)ncn2)ccc1Br,842 s
6,CCN1C(=O)COc2cc(-c3noc(C(=O)NC4CCCCC4)n3)ccc21,996 s
7,O=C(Cn1ccnc1)N1CCC(OCc2nc(C3CC3)no2)CC1,582 s
8,O=C(C1CCN(c2cnn(Cc3ccccc3)c(=O)c2)CC1)N1CCCCC1,761 s
9,Cc1[nH]nc(-c2cc(S(=O)(=O)NCCc3ccccc3)c(C)s2)c1C,886 s
10,CC1(O)C=CC(=O)C=C1,551 s
11,Cc1cc(C)cc(NC(=O)Cn2cccc2-c2nnc(C3CCC3)o2)c1,920 s
12,Cc1nc(-c2ccccc2)nc2c1CCC(=O)N2Cc1cccs1,1120 s
13,O=C(Nc1ccc2c(c1)OCCO2)c1cn(-c2cc(N3CCCC3)ncn2)cn1,795 s
14,CN(C)CCNC(=O)c1cc2cc(S(=O)(=O)N(C)C)ccc2n1Cc1ccccc1,674 s
15,O=S(=O)(Cc1noc(-c2ccc(F)cc2F)n1)c1ccc(Cl)cc1,1160 s
16,Cc1ccc(-c2nnc(C)c(NCc3ccc4c(c3)OCO4)n2)cc1,730 s
17,CCOC(=O)N1CCN(C(=O)CSc2ccc(C)cc2)CC1,765 s
18,Cc1ccc(-n2ccc(=O)c(-c3nc(-c4ccc(F)c(Br)c4)no3)n2)cc1,1080 s
19,Cc1ccc(-n2c(=O)c3sccc3n(Cc3nc(-c4ccc(C)c(C)c4)no3)c2=O)cc1,1150 s
20,Cn1cc(-c2nnc(SCC(=O)N3CCc4ccccc4C3)n2C)c(-c2ccccc2)n1,754 s
21,Cc1cccc(CN2CCCn3nc(C(=O)NCc4ccco4)cc3C2=O)c1,810 s
22,Cc1csc(-c2cc(S(=O)(=O)N3CCCCCC3)c(C)n2C)n1,1100 s
23,CC(C)c1noc(-c2ccc(-n3cnc(C(=O)NC4CCCC4)c3)nc2)n1,915 s

row,SMILES,RP-LC retention time
1,CC(=O)c1ccc2c3c(cccc13)C(=O)N(c1ccccc1)C2=O,811 s
2,COc1ccc(C2=C(C)C(N3CCN(c4ccccn4)CC3)=NS2(=O)=O)cc1,620 s
3,Cc1ccc2cc(CCC(=O)NCCCN3CCCCC3C)c(=O)[nH]c2c1 (configuration not stated),590 s
4,CC1Oc2ccccc2OC1C(=O)Nc1cccc(C(F)(F)F)c1 (configuration not stated),1050 s
5,O=S(=O)(c1ccc2nc(N3CCN(c4ccccc4)CC3)ccc2c1)N1CCCC1,921 s
6,CC(C)NC(=O)c1ccc(OCC2CCCN(C(=O)Cc3ccc(F)cc3)C2)cc1 (configuration not stated),979 s
7,CCOc1ccc(-c2nc(-c3cccc(-c4ccnn4CC)c3)no2)cc1,1300 s
8,COCCNS(=O)(=O)c1cccc(-c2nc(-c3ccc(C)cc3)no2)c1,1060 s
9,COc1ccc(CNS(=O)(=O)c2cc3c(s2)CCN(C(=O)C2CC2)C3)cc1,812 s
10,O=C(Cc1nnc(-c2ccccc2)o1)N1CCSCC1,698 s
11,COc1ccc(-n2nc(C(=O)N3CCN(c4ccccn4)CC3)c3c4ccccc4n(C)c3c2=O)cc1,676 s
12,Cc1nc(-c2csc(S(=O)(=O)N3CCC(C(=O)Nc4ccc(F)cc4)CC3)c2)no1,916 s
13,CCn1cc(-c2ccc(Cl)cc2)cc1C(=O)N1CCOCC1,953 s
14,CCC(=O)NCc1nc2c(n1CC)CN(S(=O)(=O)c1ccc(Cl)cc1)CC2,538 s
15,CCc1nc2c(c(=O)n1CC(=O)Nc1c(C)cccc1C)CN(Cc1ccccc1)CC2,645 s
16,CCn1c(=O)c2ccn(CC(=O)N3CCN(c4ccc(Cl)cc4)CC3)c2n(CC)c1=O,787 s
17,Cc1nnc(N2C(=O)C(O)=C(C(=O)c3ccco3)C2c2ccc([N+](=O)[O-])cc2)s1 (configuration not stated),793 s
18,Clc1cccc(Cc2nc(-c3ccc(-n4ccnc4)nc3)no2)c1,764 s
19,COc1ccc(CCNC(=O)Nc2nnc(SC)s2)cc1,718 s
20,CCC(=O)Nc1ccc2c(c1)N(C(=O)c1ccco1)CCC2,725 s
21,CCOC(=O)N1CCC(NC(=O)Cn2cc(-c3ccc(C)cc3)oc2=O)CC1,772 s
22,Cc1ccc(C)c(NC(=O)C(C)Oc2cc(C(F)(F)F)c3c(C)nn(C)c3n2)c1 (configuration not stated),1040 s
23,CCOC(=O)C1CCN(C(=O)Cn2c(=O)oc3ccc(C(=O)N4CCCCC4)cc32)CC1,759 s

row,SMILES,RP-LC retention time
1,O=C(NCCCc1ccccc1)C1(CCO)CCN(c2ncccn2)C1 (configuration not stated),651 s
2,Cc1cc(C)nc(N2CCN(c3ccc(F)cc3)CC2)n1,876 s
3,CCOC(=O)c1noc2nc(C)nc(N(C)Cc3ccccc3)c12,1060 s
4,CC(=O)OCC(=O)NCCCOc1cccc(CN2CCCCC2)c1,618 s
5,CCn1cnc2ccc(-c3noc(COc4ccc(OC)cc4)n3)cc21,743 s
6,COc1cccc(Cc2nc(CCS(=O)(=O)c3ccc(F)cc3)no2)c1,904 s
7,CCCn1c(=O)sc2cc(S(=O)(=O)N3CCC(C(=O)Nc4cccc(OC)c4)CC3)ccc21,978 s
8,O=C(Cc1ccc(F)cc1)NC1CCN(c2ccccc2)C1=O (configuration not stated),770 s
9,CCc1ccc(C(=O)N2CCC3(CC2)N=C(c2ccc(C)cc2)NO3)cc1,933 s
10,COc1ccccc1CCC(=O)NC(C(=O)Nc1nc2ccccc2[nH]1)C(C)C (configuration not stated),721 s
11,O=C(CN1C(=O)C(C(=O)N2CCCC2)Sc2ccccc21)NCc1cccc(Br)c1 (configuration not stated),972 s
12,CCC1CCCCN1C(=O)c1cnc2nc(C)ccc2c1Nc1ccc(OC)c(OC)c1 (configuration not stated),648 s
13,CCC(=O)N1CCCC1COc1ccc(C(=O)N2CCCC2)cc1 (configuration not stated),712 s
14,COCCNC(=O)N1c2ccccc2NC2=C(C(=O)CC(C)(C)C2)C1c1ccc(F)cc1 (configuration not stated),749 s
15,CNC(=O)C1CCN(c2nc3ncn(CC(=O)NC(C)C)c(=O)c3s2)CC1,570 s
16,CCN1CCN(C(=O)CN2C(=O)C3CCCCN3c3ccc(S(=O)(=O)N(CC)CC)cc32)CC1 (configuration not stated),670 s
17,CCOC(=O)c1[nH]c(C)c(CCC(=O)N2CCC(C(=O)NCCc3ccc(C)cc3)CC2)c1C,843 s
18,CCn1cc(S(=O)(=O)N2CCCn3nc(-c4ccc(OC)cc4)cc3C2)cn1,805 s
19,c1cc2c(cc1OCc1cn(CC3CCCNC3)nn1)CCC2 (configuration not stated),587 s
20,CCOc1ccc(-n2nc(CO)c(C(=O)NC3CCCC3)n2)cc1,1020 s
21,O=C(Nc1ccc(F)c(F)c1)C1CCN(c2ccc(=O)n(-c3ccc(F)cc3)n2)CC1,822 s
